Measurements published in ChEMBL document CHEMBL3739261, “Synthesis and antibacterial activity evaluation of C-5 side chain modified analogues of FYL-66, a potential agent against methicillin-resistant Staphylococcus aureus” (Medchemcomm, 2015).
Converted amounts (≈) assume the structure as drawn. The source made the active and inactive calls. The calls are words filed in the database; no cut-off is given here.

Assays:
Staphylococcus aureus [1] = experiment: Antibacterial activity against methicillin-susceptible Staphylococcus aureus ATCC 25923 incubated for 18 hrs by broth microdilution method; type: functional; conditions: ATCC 25923, 18 h
Staphylococcus aureus [2] = experiment: Antibacterial activity against methicillin-susceptible Staphylococcus aureus CMCC 2603 incubated for 18 hrs by broth microdilution method; type: functional; conditions: CMCC 2603, 18 h
Staphylococcus aureus [3] = experiment: Antibacterial activity against methicillin-susceptible Staphylococcus aureus ATCC 29213 incubated for 18 hrs by broth microdilution method; type: functional; conditions: ATCC 29213, 18 h
Staphylococcus aureus [4] = experiment: Antibacterial activity against methicillin-susceptible Staphylococcus aureus ATCC 6538 incubated for 18 hrs by broth microdilution method; type: functional; conditions: ATCC 6538, 18 h
Staphylococcus aureus [5] = experiment: Antibacterial activity against methicillin-resistant Staphylococcus aureus ATCC 33591 incubated for 18 hrs by broth microdilution method; type: functional; conditions: ATCC 33591, 18 h
Staphylococcus aureus [6] = experiment: Antibacterial activity against methicillin-resistant Staphylococcus aureus ATCC 43300 incubated for 18 hrs by broth microdilution method; type: functional; conditions: ATCC 43300, 18 h
Escherichia coli = experiment: Antibacterial activity against Escherichia coli ATCC 25922 incubated for 18 hrs by broth microdilution method; type: functional; conditions: ATCC 25922, 18 h
Pseudomonas aeruginosa = experiment: Antibacterial activity against Pseudomonas aeruginosa ATCC 27853 incubated for 18 hrs by broth microdilution method; type: functional; conditions: ATCC 27853, 18 h
[7] = Cytotoxicity against HEK293A cells after 48 hrs by MTT assay; type: cell-based; conditions: Homo sapiens, HEK293-A
[8] = Cytotoxicity against human L02 cells after 48 hrs by MTT assay; type: cell-based; conditions: L02, 48 h
Staphylococcus aureus [9] = experiment: Antibacterial activity against methicillin-resistant Staphylococcus aureus ATCC 33591 in neutropenic Kunming mouse systemic infection model assessed as survival rate at 20 mg/kg, po administered 1 hr post inoculation measured on day 1 to 2; type: functional; conditions: ATCC 33591, po
[10] = Solubility of compound in distilled water after 24 hrs by HPLC analysis; type: physicochemical
[11] = Octanol/water partition coefficient, log P of the compound by HPLC assay; type: physicochemical
Staphylococcus aureus [12] = experiment: Antibacterial activity against methicillin-resistant Staphylococcus aureus ATCC 33591 in neutropenic Kunming mouse systemic infection model assessed as survival rate at 20 mg/kg, po administered 1 hr post inoculation measured on day 3; type: functional
Staphylococcus aureus [13] = experiment: Antibacterial activity against methicillin-resistant Staphylococcus aureus ATCC 33591 in neutropenic Kunming mouse systemic infection model assessed as survival rate at 10 mg/kg, po administered 1 hr post inoculation measured after 1 week; type: functional, organism-based
[14] = AUC (0 to infinity) in Sprague-Dawley rat blood at 10 mg/kg, po by HPLC analysis; type: ADME, organism-based; set-up: dose 10 mg/kg, route oral, time infinity
[15] = AUC (0 to infinity) in Sprague-Dawley rat blood at 10 mg/kg, iv by HPLC analysis; type: ADME, organism-based; set-up: dose 10 mg/kg, route intravenous, time infinity
[16] = Clearance in Sprague-Dawley rat blood at 10 mg/kg, po by HPLC analysis; type: ADME, organism-based
[17] = Half life in Sprague-Dawley rat blood at 10 mg/kg, po by HPLC analysis; type: ADME, organism-based
[18] = Half life in Sprague-Dawley rat blood at 10 mg/kg, iv by HPLC analysis; type: ADME, organism-based
[19] = Tmax in Sprague-Dawley rat blood at 10 mg/kg, po by HPLC analysis; type: ADME, organism-based
[20] = Tmax in Sprague-Dawley rat blood at 10 mg/kg, iv by HPLC analysis; type: ADME, organism-based
[21] = Cmax in Sprague-Dawley rat blood at 10 mg/kg, po by HPLC analysis; type: ADME, organism-based; set-up: dose 10 mg/kg, route oral
[22] = Cmax in Sprague-Dawley rat blood at 10 mg/kg, iv by HPLC analysis; type: ADME, organism-based; set-up: dose 10 mg/kg, route intravenous
[23] = Clearance in Sprague-Dawley rat blood at 10 mg/kg, iv by HPLC analysis; type: ADME, organism-based
[24] = Oral bioavailability in Sprague-Dawley rat blood at 10 mg/kg by HPLC analysis; type: ADME, organism-based
Staphylococcus aureus [25] = experiment: Antibacterial activity against methicillin-resistant Staphylococcus aureus; type: functional
Streptococcus pneumoniae = experiment: Antibacterial activity against Penicillin-resistant Streptococcus pneumoniae; type: functional
Enterococcus [26] = experiment: Antibacterial activity against vancomycin-resistant Enterococcus; type: functional
Enterococcus [27] = experiment: Antibacterial activity against Enterococcus; type: functional

Compound	MIC (Staphylococcus aureus [1])	MIC (Staphylococcus aureus [2])	MIC (Staphylococcus aureus [3])	MIC (Staphylococcus aureus [4])	MIC (Staphylococcus aureus [5])	MIC (Staphylococcus aureus [6])	MIC (Escherichia coli)	MIC (Pseudomonas aeruginosa)	IC50 [7]	IC50 [8]	solubility at 24 h [10]	logP [11]	other results
O=C(NC[C@H]1CN(c2ccc(-n3cc(-c4ccccn4)cn3)c(F)c2)C(=O)O1)C(F)F	2 µg/mL (≈ 4.64 µM)	2 µg/mL (≈ 4.64 µM)	2 µg/mL (≈ 4.64 µM)	2 µg/mL (≈ 4.64 µM)	2 µg/mL (≈ 4.64 µM)	2 µg/mL (≈ 4.64 µM)	> 32 µg/mL	> 32 µg/mL	167 µg/mL (≈ 387 µM)	> 400 µg/mL	29.9 µM (≈ 12.9 µg/mL)	1.9	survival at 20 mg/kg (Staphylococcus aureus [9]): 40%; survival at 20 mg/kg (Staphylococcus aureus [12]; ATCC 33591, po): 30%; Activity (Staphylococcus aureus [13]): Active; AUC(0-inf) [14]: 51.6 µg·h/mL; AUC(0-inf) [15]: 57.6 µg·h/mL; CL/F [16]: 3.33 mL/min/kg; half-life [17]: 8.87 h; half-life [18]: 5.4 h; Tmax [19]: 1.5 h; Tmax [20]: 6.6 min; Cmax [21]: 4360 ng/mL; Cmax [22]: 15000 ng/mL; clearance [23]: 3 mL/min/kg; bioavailability [24]: 89.6%
CC(=O)NC[C@H]1CN(c2ccc(-n3cc(-c4ccccn4)cn3)c(F)c2)C(=O)O1 [listing 1 of 2 here]	2 µg/mL (≈ 5.06 µM)	2 µg/mL (≈ 5.06 µM)	2 µg/mL (≈ 5.06 µM)	2 µg/mL (≈ 5.06 µM)	2 µg/mL (≈ 5.06 µM)	2 µg/mL (≈ 5.06 µM)	> 32 µg/mL	> 32 µg/mL	174 µg/mL (≈ 440 µM)	261 µg/mL (≈ 660 µM)	134 µM (≈ 52.8 µg/mL)	1.35	survival at 20 mg/kg (Staphylococcus aureus [9]): 30%; AUC(0-inf) [14]: 157 µg·h/mL; AUC(0-inf) [15]: 205 µg·h/mL; CL/F [16]: 1.5 mL/min/kg; half-life [17]: 13.1 h; half-life [18]: 0.88 h; Tmax [19]: 11 h; Tmax [20]: 6.6 min; Cmax [21]: 5770 ng/mL; clearance [23]: 0.833 mL/min/kg; bioavailability [24]: 76.7%; MIC (Staphylococcus aureus [25]): 0.25 µg/mL (≈ 0.632 µM); MIC (Streptococcus pneumoniae): 0.25 µg/mL (≈ 0.632 µM); MIC (Enterococcus [26]): 0.25 µg/mL (≈ 0.632 µM); MIC (Enterococcus [27]): 0.25 µg/mL (≈ 0.632 µM)
CC(=O)NC[C@H]1CN(c2ccc(-n3cc(-c4ccccn4)cn3)c(F)c2)C(=O)O1 [listing 2 of 2 here]	–	–	–	–	–	–	–	–	–	–	–	–	Activity (Staphylococcus aureus [12]): Active
CC(=O)NC[C@H]1CN(c2ccc(-n3cc(-c4ccccn4)cn3)c(F)c2)C(=O)O1.Cl	–	–	–	–	–	–	–	–	–	–	–	–	MIC (Staphylococcus aureus [25]): 0.25 µg/mL; MIC (Streptococcus pneumoniae): 0.25 µg/mL; MIC (Enterococcus [26]): 0.25 µg/mL; MIC (Enterococcus [27]): 0.25 µg/mL
CC(=O)NC[C@H]1CN(c2ccc(N3CCOCC3)c(F)c2)C(=O)O1 [LINEZOLID]	–	–	–	–	–	–	> 32 µg/mL	> 32 µg/mL	215 µg/mL (≈ 637 µM)	213 µg/mL (≈ 631 µM)	–	–	survival at 20 mg/kg (Staphylococcus aureus [9]): 30%; Activity (Staphylococcus aureus [12]): Active
O=C1O[C@@H](CN2CCOCC2)CN1c1ccc(-n2cc(-c3ccccn3)cn2)c(F)c1	> 32 µg/mL	> 32 µg/mL	> 32 µg/mL	> 32 µg/mL	> 32 µg/mL	> 32 µg/mL	> 32 µg/mL	> 32 µg/mL	> 400 µg/mL	> 400 µg/mL	109 µM (≈ 46.2 µg/mL)	2	–
CN1CCN(C[C@H]2CN(c3ccc(-n4cc(-c5ccccn5)cn4)c(F)c3)C(=O)O2)CC1	> 32 µg/mL	> 32 µg/mL	> 32 µg/mL	> 32 µg/mL	> 32 µg/mL	> 32 µg/mL	> 32 µg/mL	> 32 µg/mL	70 µg/mL (≈ 160 µM)	70 µg/mL (≈ 160 µM)	1690 µM (≈ 738 µg/mL)	2.2	–
CN(C)S(=O)(=O)NC[C@H]1CN(c2ccc(-n3cc(-c4ccccn4)cn3)c(F)c2)C(=O)O1	> 32 µg/mL	> 32 µg/mL	> 32 µg/mL	> 32 µg/mL	> 32 µg/mL	> 32 µg/mL	> 32 µg/mL	> 32 µg/mL	249 µg/mL (≈ 541 µM)	158 µg/mL (≈ 343 µM)	472 µM (≈ 217 µg/mL)	1.38	–
O=C1O[C@@H](CN2CCC(c3ccc(F)cc3)CC2)CN1c1ccc(-n2cc(-c3ccccn3)cn2)c(F)c1	> 32 µg/mL	> 32 µg/mL	> 32 µg/mL	> 32 µg/mL	> 32 µg/mL	> 32 µg/mL	> 32 µg/mL	> 32 µg/mL	> 400 µg/mL	> 400 µg/mL	≤ 19.4 µM	5.78	–
O=C1O[C@@H](CN2CCN(CCO)CC2)CN1c1ccc(-n2cc(-c3ccccn3)cn2)c(F)c1	> 32 µg/mL	> 32 µg/mL	> 32 µg/mL	> 32 µg/mL	> 32 µg/mL	> 32 µg/mL	> 32 µg/mL	> 32 µg/mL	> 400 µg/mL	> 400 µg/mL	125 µM (≈ 58.1 µg/mL)	1.09	–
O=C(OC[C@H]1CN(c2ccc(-n3cc(-c4ccccn4)cn3)c(F)c2)C(=O)O1)c1ccccc1	> 32 µg/mL	> 32 µg/mL	> 32 µg/mL	> 32 µg/mL	> 32 µg/mL	> 32 µg/mL	> 32 µg/mL	> 32 µg/mL	> 400 µg/mL	> 400 µg/mL	≤ 65.4 µM	4.21	–
NC(=O)[C@H]1CN(c2ccc(-n3cc(-c4ccccn4)cn3)c(F)c2)C(=O)O1	16 µg/mL (≈ 43.6 µM)	16 µg/mL (≈ 43.6 µM)	16 µg/mL (≈ 43.6 µM)	16 µg/mL (≈ 43.6 µM)	16 µg/mL (≈ 43.6 µM)	16 µg/mL (≈ 43.6 µM)	> 32 µg/mL	> 32 µg/mL	152 µg/mL (≈ 414 µM)	119 µg/mL (≈ 324 µM)	27.2 µM (≈ 9.99 µg/mL)	1.59	–
